Where a name gives a salt, the structure may show the parent alone. Where only a bound is given, the exact number is not on record here.

This assay deals with T1, c-Met kinase (recombinant c-Met) (Homo sapiens, UniProt P08581).
T1 construct: 0.27 nM recombinant c-Met
T1 sequence (P08581 25-1390): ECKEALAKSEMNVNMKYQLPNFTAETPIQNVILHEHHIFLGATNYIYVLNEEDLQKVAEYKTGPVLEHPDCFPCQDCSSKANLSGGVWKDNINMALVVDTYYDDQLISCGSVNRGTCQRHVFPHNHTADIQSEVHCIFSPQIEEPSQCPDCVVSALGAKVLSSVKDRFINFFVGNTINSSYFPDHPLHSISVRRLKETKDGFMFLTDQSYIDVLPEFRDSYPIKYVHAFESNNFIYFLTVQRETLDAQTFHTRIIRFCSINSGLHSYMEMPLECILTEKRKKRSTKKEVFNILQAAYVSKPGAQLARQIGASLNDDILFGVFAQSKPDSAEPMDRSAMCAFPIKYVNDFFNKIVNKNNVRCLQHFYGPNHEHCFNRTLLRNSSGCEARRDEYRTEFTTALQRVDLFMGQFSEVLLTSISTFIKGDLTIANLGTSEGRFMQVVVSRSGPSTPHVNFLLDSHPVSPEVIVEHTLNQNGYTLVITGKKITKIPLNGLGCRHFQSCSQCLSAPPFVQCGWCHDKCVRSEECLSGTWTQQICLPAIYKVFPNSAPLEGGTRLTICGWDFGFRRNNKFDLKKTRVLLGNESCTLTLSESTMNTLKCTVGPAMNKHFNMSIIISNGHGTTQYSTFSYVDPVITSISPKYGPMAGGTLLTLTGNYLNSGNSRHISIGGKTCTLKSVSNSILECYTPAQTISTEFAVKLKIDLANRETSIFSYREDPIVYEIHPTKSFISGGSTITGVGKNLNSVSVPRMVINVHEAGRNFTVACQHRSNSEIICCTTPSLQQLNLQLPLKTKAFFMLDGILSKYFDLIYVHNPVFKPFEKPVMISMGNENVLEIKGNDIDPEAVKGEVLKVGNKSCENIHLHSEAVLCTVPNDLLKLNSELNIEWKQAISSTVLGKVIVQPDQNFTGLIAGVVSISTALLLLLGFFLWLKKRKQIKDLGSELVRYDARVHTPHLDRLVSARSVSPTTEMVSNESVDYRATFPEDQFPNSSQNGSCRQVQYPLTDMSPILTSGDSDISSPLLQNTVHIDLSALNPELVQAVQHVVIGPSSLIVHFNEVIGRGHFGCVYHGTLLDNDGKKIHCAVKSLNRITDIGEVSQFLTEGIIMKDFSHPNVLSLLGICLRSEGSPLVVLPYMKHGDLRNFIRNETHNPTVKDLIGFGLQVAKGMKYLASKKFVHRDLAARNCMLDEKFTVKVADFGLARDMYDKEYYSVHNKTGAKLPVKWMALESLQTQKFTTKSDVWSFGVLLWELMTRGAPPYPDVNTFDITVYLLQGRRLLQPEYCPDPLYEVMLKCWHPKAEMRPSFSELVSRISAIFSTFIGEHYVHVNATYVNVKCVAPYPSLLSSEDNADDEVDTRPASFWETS
As to the kind of experiment: In vitro kinase assay I (homogeneous time-resolved fluorescence tyrosine kinase assay). It counts as biochemical. The essentials:
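Biotinylated peptide (0.5 μM) phosphorylated by 0.2 nM recombinant c-Met with 50 μM MgATP, 60 min at room temperature, pH 7.4, 5% DMSO. EDTA stop; HTRF read with Eu-anti-phosphotyrosine antibody and streptavidin-APC. IC50 from 4-parameter logistic fit.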
On to `CCCn1cnc(-c2cccc(Cc3nn(-c4ccc(F)c(F)c4)ccc3=O)c2)n1` [Example 80, 1-(3,4-difluorophenyl)-3-[3-(1-propyl-1H-1,2,4-triazol-3-yl)benzyl]pyridazin-4(1H)-one], for which the IC50 (in general, the concentration needed to halve the response being measured) was < 0.1 µM.
The figure for `CCCn1cnc(-c2cccc(Cc3nn(-c4cnn(CCOCc5ccccc5)c4)ccc3=O)c2)n1` [Example 89, 1-{1-[2-(benzyloxy)ethyl]-1H-pyrazol-4-yl}-3-[3-(1-propyl-1H-1,2,4-triazol-3-yl)benzyl]pyridazin-4(1H)-one] is 0.1 to 1 µM.
Then `CCn1cc(-n2ccc(=O)c(C(C)c3cccc(-c4ncc(OCC(F)F)cn4)c3)n2)cn1` (single isomer, unassigned) [Example 294, 3-[(1R or S)-1-{3-[5-(2,2-difluoroethoxy)pyrimidin-2-yl]phenyl}ethyl]-1-(1-ethyl-1H-pyrazol-4-yl)pyridazin-4(1H)-one], with < 0.1 µM.
The figure for `CCOC(=O)Nc1cccc(Cc2nn(-c3cnn(C)c3)ccc2=O)c1` [Example 1, Ethyl(3-{[1-(1-methyl-1H-pyrazol-4-yl)-4-oxo-1,4-dihydropyridazin-3-yl]methyl}phenyl)carbamate] is < 0.1 µM.
As for `Cn1cc(-n2ccc(=O)c(Cc3cccc(-c4ncc(N5CCS(=O)(=O)CC5)cn4)c3)n2)cn1` [Example 448, 3-{3-[5-(1,1-dioxidothio-morpholin-4-yl]pyrimidin-2-yl]benzyl}-1-(1-methyl-1H-pyrazol-4-yl)pyridazin-4(1H)-one], the concentration for half-maximal inhibition (IC50) is < 0.1 µM.
The figure for `Cn1cc(-n2ccc(=O)c(Cc3cccc(NC(=O)OCCCN4CCS(=O)(=O)CC4)c3)n2)cn1` [Example 566, 3-(1,1-dioxidothio-morpholin-4-yl)propyl (3-{[1-(1-methyl-1H-pyrazol-4-yl)-4-oxo-1,4-dihydropyridazin-3-yl]methyl}phenyl)carbamate] is < 0.1 µM; for `Cn1cc(-n2ccc(=O)c(Cc3cccc(-c4ncc(N5CCC6CCCCC6C5)cn4)c3)n2)cn1` (mixture of isomers) [Example 443, 1-(1-methyl-1H-pyrazol-4-yl)-3-{3-[5-(octahydroiso-quinolin-2(1H)-yl)pyrimidin-2-yl]benzyl}pyridazin-4(1H)-one] it is < 0.1 µM; for `COCCOc1cnc(-c2cccc(C(C)c3nn(-c4cnn(C)c4)ccc3=O)c2)nc1` (single isomer, unassigned) [Example 222, 3-((1S or R)-1-{3-[5-(2-methoxyethoxy)pyrimidin-2-yl]phenyl}ethyl)-1-(1-methyl-1H-pyrazol-4-yl)pyridazin-4(1H)-one] it is 0.1 to 1 µM.
Consider `Cn1cc(-n2ccc(=O)c(Cc3cccc(N4CCCC4=O)c3)n2)cn1` [Example 636, 1-(1-Methyl-1H-pyrazol-4-yl)-3-[3-(2-oxopyrrolidin-1-yl)benzyl]pyridazin-4(1H)-one], for which the 50% inhibitory concentration (IC50) was 0.1 to 1 µM.
Then `CCOc1cnc(-c2cccc(Cc3nn(-c4cnn(C5CCNCC5)c4)ccc3=O)c2)nc1` [Example 664, 3-[3-(5-ethoxypyrimidin-2-yl)benzyl]-1-(1-piperidin-4-yl-1H-pyrazol-4-yl)pyridazin-4(1H)-one], with < 0.1 µM; and `COCCOCCOC(=O)Nc1cccc(Cc2nn(-c3cccc(C#N)c3)ccc2=O)c1` [Example 600, 2-(2-methoxyethoxy)ethyl (3-{[1-(3-cyanophenyl)-4-oxo-1,4-dihydropyridazin-3-yl]methyl}phenyl)carbamate], with < 0.1 µM.
The figure for `Cn1cc(-n2ccc(=O)c(Cc3ccc4nccn4c3)n2)cn1` [Example 46, 3-(imidazo[1,2-a]pyridin-6-ylmethyl)-1-(1-methyl-1H-pyrazol-4-yl)pyridazin-4(1H)-one] is 1 to 3 µM; for `CCn1cc(-n2ccc(=O)c(Cc3cccc(-c4ncc(OCC5CCN(C(=O)OC(C)(C)C)CC5)cn4)c3)n2)cn1` [Example 288, tert-butyl 4-({[2-(3-{[1-(1-ethyl-1H-pyrazol-4-yl)-4-oxo-1,4-dihydropyridazin-3-yl]methyl}phenyl)pyrimidin-5-yl]oxy}methyl)piperidine-1-carboxylate] it is < 0.1 µM; for `CN1CCN(CCOC(=O)Nc2cccc(Cc3nn(-c4cc(F)c(F)c(F)c4)ccc3=O)c2)CC1` [Example 516, 2-(4-methylpiperazin-1-yl)ethyl (3-{[4-oxo-1-(3,4,5-trifluorophenyl)-1,4-dihydropyridazin-3-yl]methyl}phenyl)carbamate] it is < 0.1 µM.
As for `Cn1cc(-n2ccc(=O)c(Cc3cccc(CC(N)=O)c3)n2)cn1` [Example 48, 2-(3-{[1-(1-methyl-1H-pyrazol-4-yl)-4-oxo-1,4-dihydropyridazin-3-yl]methyl}phenyl)acetamide], the IC50 lay within 1 to 3 µM.
The figure for `Cn1cc(-n2ccc(=O)c(Cc3cccc(NC(=O)OCCCN4CCOCC4)c3)n2)cn1` [Example 537, 3-morpholin-4-ylpropyl (3-{[1-(1-methyl-1H-pyrazol-4-yl)-4-oxo-1,4-dihydropyridazin-3-yl]methyl}phenyl)carbamate] is < 0.1 µM.
Regarding `Cn1cc(-n2ccc(=O)c(Cc3cccc(-c4ncc(OCC(F)c5ccncc5)cn4)c3)n2)cn1` (racemic) [Example 389, rac-3-(3-{5-[2-fluoro-2-(pyridin-4-yl)ethoxy]pyrimidin-2-yl}benzyl)-1-(1-methyl-1H-pyrazol-4-yl)pyridazin-4(1H)-one], the 50% inhibitory concentration (IC50) is < 0.1 µM.
Then `Cn1cc(-n2ccc(=O)c(Cc3cccc(-c4ncc(-c5cnn(C6COC6)c5)cn4)c3)n2)cn1` [Example 435, 1-(1-Methyl-1H-pyrazol-4-yl)-3-{3-[5-(1-oxetan-3-yl-1H-pyrazol-4-yl)pyrimidin-2-yl]benzyl}pyridazin-4(1H)-one], with < 0.1 µM.
With `Cn1cc(-n2ccc(=O)c(Cc3cccc(-c4ncc(N5CCCC(C#N)C5)cn4)c3)n2)cn1` (racemic) [Example 446, rac-1-[2-(3-{[1-(1-methyl-1H-pyrazol-4-yl)-4-oxo-1,4-dihydropyridazin-3-yl]methyl}phenyl)pyrimidin-5-yl]piperidine-3-carbonitrile], the concentration for half-maximal inhibition (IC50) is < 0.1 µM.
`COCC(=O)Nc1cnc(-c2cccc(Cc3nn(-c4cnn(C)c4)ccc3=O)c2)nc1` [Example 461, 2-methoxy-N-[2-(3-{[1-(1-methyl-1H-pyrazol-4-yl)-4-oxo-1,4-dihydro-pyridazin-3-yl]methyl}phenyl)pyrimidin-5-yl]acetamide]: the IC50 is < 0.1 µM.
Then `Cn1cc(-n2ccc(=O)c(Cc3cccc(-c4ncc(OCc5ccccc5)cn4)c3)n2)cn1` [Example 67, 3-{3-[5-(benzyloxy)pyrimidin-2-yl]benzyl}-1-(1-methyl-1H-pyrazol-4-yl)pyridazin-4(1H)-one], with < 0.1 µM.
The figure for `O=c1ccn(-c2ccc(F)c(F)c2)nc1Cc1cccc(-c2ncc(OC3COC3)cn2)c1` [Example 326, 1-(3,4-difluorophenyl)-3-{3-[5-(oxetan-3-yloxy)pyrimidin-2-yl]benzyl}pyridazin-4(1H)-one] is < 0.1 µM.
Then `CCCOC(=O)Nc1cccc(Cc2nn(-c3cc(Cl)nc(Cl)c3)ccc2=O)c1` [Example 56, propyl (3-{[1-(2,6-dichloropyridin-4-yl)-4-oxo-1,4-dihydropyridazin-3-yl]methyl}phenyl)carbamate], with < 0.1 µM; and `Cn1cc(-n2ccc(=O)c(Cc3cccc(-c4ncc(OCC5COCCO5)cn4)c3)n2)cn1` (single isomer, unassigned) [Example 348, 3-(3-{5-[(2S or R)-1,4-dioxan-2-ylmethoxy]pyrimidin-2-yl}benzyl)-1-(1-methyl-1H-pyrazol-4-yl)pyridazin-4(1H)-one], with < 0.1 µM; and `Cn1cc(-n2ccc(=O)c(Cc3cccc(-c4nc[nH]n4)c3)n2)cn1` [Example 186, 1-(1-Methyl-1H-pyrazol-4-yl)-3-[3-(1H-1,2,4-triazol-3-yl)benzyl]pyridazin-4(1H)-one hydrochloride], with < 0.1 µM.
Regarding `Cn1cc(-n2ccc(=O)c(Cc3cccc(-c4ncc(-c5ccc(N)nc5)cn4)c3)n2)cn1` [Example 419, 3-{3-[5-(6-aminopyridin-3-yl)pyrimidin-2-yl]benzyl}-1-(1-methyl-1H-pyrazol-4-yl)pyridazin-4(1H)-one], the IC50 is < 0.1 µM.
As for `CC(C)COC(=O)Nc1cccc(Cc2nn(-c3cccc(-c4cnn(C)c4)c3)ccc2=O)c1` [Example 729, 2-methylpropyl [3-({1-[3-(1-methyl-1H-pyrazol-4-yl)phenyl]-4-oxo-1,4-dihydropyridazin-3-yl}methyl)phenyl] carbamate], the concentration for half-maximal inhibition (IC50) was in the range of 0.1 to 1 µM.
Then `CN(C)C(=O)CCOC(=O)Nc1cccc(Cc2nn(-c3cc(F)c(F)c(F)c3)ccc2=O)c1` [Example 561, 3-(dimethylamino)-3-oxopropyl (3-{[4-oxo-1-(3,4,5-trifluorophenyl)-1,4-dihydropyridazin-3-yl]methyl}phenyl)carbamate], with < 0.1 µM.
With `CCn1cc(-n2ccc(=O)c(Cc3cccc(-c4ncc(OCc5ccccc5)cn4)c3)n2)cn1` [Example 71, 3-{3-[5-(benzyloxy)pyrimidin-2-yl]benzyl}-1-(1-ethyl-1H-pyrazol-4-yl)pyridazin-4(1H)-one], the IC50 is < 0.1 µM.
As for `CNC(=O)Nc1cccc(Cc2nn(-c3cnn(C)c3)ccc2=O)c1` [Example 487, 1-Methyl-3-(3-{[1-(1-methyl-1H-pyrazol-4-yl)-4-oxo-1,4-dihydropyridazin-3-yl]methyl}phenyl)urea], the 50% inhibitory concentration (IC50) is < 0.1 µM.
The figure for `CC(C)COC(=O)Nc1cccc(Cc2nn(-c3cnn(CCN)c3)ccc2=O)c1` [Example 648, 2-methylpropyl [3-({1-[1-(2-aminoethyl)-1H-pyrazol-4-yl]-4-oxo-1,4-dihydropyridazin-3-yl}methyl)phenyl]carbamate] is < 0.1 µM; for `COCCNc1ccnc(-c2cccc(C(C)c3nn(-c4cnn(C)c4)ccc3=O)c2)n1` (single isomer, unassigned) [Example 695, 3-[(1R or S)-1-(3-{4-[(2-Methoxyethyl)amino]pyrimidin-2-yl}phenyl)ethyl]-1-(1-methyl-1H-pyrazol-4-yl)pyridazin-4(1H)-one] it is 0.1 to 1 µM.

The values above are taken from patent US20120264735A1 (priority 2009, published 2012).
